From PMC12040169 (PLOS Biology, 2025) come the findings set out here.

The data set in a line: in vitro. Particulars: human, hela cells, % viability.

Usually viability stands for a read-out of living cells in per cent, often relative to untreated cells.

As for `O=C(O)CN(c1ccc([N+](=O)[O-])cc1)S(=O)(=O)c1ccccc1` [CBK263782], the viability at 28.5 h, 10 µM is 92.7%.

For the molecule `NC(=O)c1cccc(-c2cnc(N)c(NC3CCOCC3)n2)c1` [CBK063836], the viability at 28.5 h, 10 µM amounted to 98.8%.

`Cc1c(-c2cccc(Cl)c2)nc2ccccc2c1C(=O)NCCc1ccc(S(N)(=O)=O)cc1` [CBK267784]: the viability at 28.5 h, 10 µM was 96%.

As to `C[C@H](Nc1nc(-c2ccoc2)cnc1N)c1ccccc1` [CBK063707], the viability at 28.5 h, 10 µM came out at 105%.

For the molecule `O=C(c1ccncc1)N1CCN(S(=O)(=O)c2ccccc2[N+](=O)[O-])CC1` [CBK264196], the viability at 28.5 h, 10 µM was found to be 92.6%.

`CCC(CO)Nc1cncc(-c2ccccc2CO)n1` (stereo not drawn) [CBK065775]: the viability at 28.5 h, 10 µM worked out at 103%.

On to `Cc1ccc(NC(=O)NC(=O)C2CCN(S(C)(=O)=O)CC2)cc1` [CBK034863], for which the viability at 28.5 h, 10 µM was determined as 93.4%.

`CCOc1ccc(C2CCCN2S(=O)(=O)c2c[nH]c(=O)[nH]c2=O)cc1` (stereo not drawn) [CBK285806]: the viability at 28.5 h, 10 µM amounted to 92.6%.

As to `Cc1nc(NS(=O)(=O)c2cc(Cl)sc2Cl)sc1C(=O)N1CCN(C)CC1` [CBK045818], the viability at 28.5 h, 10 µM was determined as 106%.

With `CC(C)C(=O)Nc1cc2cccnc2c(-c2ccc3c(c2)CCO3)n1` [CBK081260], the viability at 28.5 h, 10 µM is 114%.

As for `Cc1cnc(CNC(=O)N2CCN(c3ccccc3)CC2)cn1` [CBK155174], the viability at 28.5 h, 10 µM turned out to be 101%.

For `CCOCCn1nc(C)cc1C(=O)NC(CC)c1cn2cccnc2n1` (stereo not drawn) [CBK307377], the viability at 28.5 h, 10 µM was determined as 79%.

On to `Cc1cccc(Nc2nc(N)nc(CSc3nccn3C)n2)c1` [CBK266105], for which the viability at 28.5 h, 10 µM amounted to 98.7%.

For the molecule `COC(=O)CN1C(=O)S/C(=C/c2cc(C)n(-c3ccc4ncccc4c3)c2C)C1=O` [CBK265275], the viability at 28.5 h, 10 µM came to 121%.

Turning to `O=C(O)c1ccc2c(c1)C(=O)N(c1cccc(/C=C/C(=O)c3cccc(N4C(=O)c5ccc(C(=O)O)cc5C4=O)c3)c1)C2=O` [CBK261178], the viability at 28.5 h, 10 µM came to 89.8%.

For the molecule `O=C(CSc1ccc(Br)cc1)NCc1ccco1` [CBK269701], the viability at 28.5 h, 10 µM amounted to 86.5%.

For the molecule `CC(c1ccc(F)c(F)c1)N(C)C(=O)CN1CCCc2occc2C1` (stereo not drawn) [CBK304456], the viability at 28.5 h, 10 µM was 82.9%.

In the case of `Cc1ccnc2nc(C(=O)OCC(=O)Nc3cccc(C#N)c3)nn12` [CBK305068], the viability at 28.5 h, 10 µM was 100%.

Take `C[C@H](Nc1nccnc1-c1ccco1)c1ccccc1` [CBK037032]: the viability at 28.5 h, 10 µM turned out to be 93.1%.

As for `CCc1nc2ccc(C(=O)N3CCN(S(=O)(=O)CC)CC3)cn2c1N(C)CC` [CBK145520], the viability at 28.5 h, 10 µM is 85.1%.

As to `CCCCNCC(=O)Nc1sc2c(c1C(=O)O)CCCC2` [CBK287207], the viability at 28.5 h, 10 µM was 83.7%.

With `CCc1nc2ccc(C(=O)N3CCCC(C(N)=O)C3)cn2c1N(CC)CCN(C)C` (stereo not drawn) [CBK146185], the viability at 28.5 h, 10 µM is 98.8%.

Turning to `CCCn1c(CN2CCOCC2)nc2c1c(=O)n(C)c(=O)n2C` [CBK305911], the viability at 28.5 h, 10 µM came out at 103%.

On to `CN1CCN(NC(=O)C2C3C=CC(C3)C2C(=O)O)CC1` (stereo not drawn) [CBK286915], for which the viability at 28.5 h, 10 µM was determined as 90.1%.

Consider `CC(C)C(=O)NC(=S)Nc1ccc2oc(-c3ccncc3)nc2c1` [CBK269702], for which the viability at 28.5 h, 10 µM is 96.4%.

Take `c1ccc2c(c1)OCC(COc1nccc(N3CCCNCC3)n1)O2` (stereo not drawn) [CBK085471]: the viability at 28.5 h, 10 µM worked out at 89.8%.

With `O=C(OCCN1CCOCC1)N1CCN(c2ccccc2)CC1` [CBK200242], the viability at 28.5 h, 10 µM is 90.3%.

In the case of `Cc1cc(F)ccc1C(=O)NCC1CCN(c2cnn(C)c(=O)c2)C1` (stereo not drawn) [CBK307097], the viability at 28.5 h, 10 µM came to 112%.

With `CC(C)(C)C(=O)N[C@H]1C[C@@H](Cc2cc(CO)on2)C1(C)C` [CBK289260], the viability at 28.5 h, 10 µM worked out at 92.1%.

On to `COc1ccc(C2CC(c3ccccc3O)=NN2)cc1` (stereo not drawn) [CBK287281], for which the viability at 28.5 h, 10 µM was found to be 77.8%.

Consider `O=S(=O)(NC1c2cccc3cccc(c23)C1N1CCNCC1)c1ccc(Cl)cc1` (stereo not drawn) [CBK264082], for which the viability at 28.5 h, 10 µM amounted to 92.2%.

With `COc1ccnc(N2CCN(Cc3cncn3C3CCCCC3)CC2)n1` [CBK306925], the viability at 28.5 h, 10 µM was determined as 98.1%.

As for `Clc1ccc(CN2CCN(c3nccnc3OCc3cccnc3)CC2)cc1` [CBK083130T], the viability at 28.5 h, 10 µM came to 99.6%.

Turning to `O=C(O)CSC1=CC(=O)N(c2ccc(Br)cc2)C1=O` [CBK287263], the viability at 28.5 h, 10 µM stood at 81.5%.

Turning to `CN(C)CCN(C)C(=O)c1cc(-c2ccc(Cl)cc2)[nH]n1` [CBK115928], the viability at 28.5 h, 10 µM worked out at 94.9%.

Turning to `Oc1cccc2c1OCO2` [CBK000070], the viability at 28.5 h, 10 µM was found to be 85.8%.

Take `O=C(NC1CCCCC1)[C@@H]1C=CCN1C(=O)c1cccs1` [CBK284338]: the viability at 28.5 h, 10 µM worked out at 95.8%.

As to `COc1ccc(NC(=O)Cc2csc(NC(C)=O)n2)cc1` [CBK287650], the viability at 28.5 h, 10 µM is 93.3%.

On to `CC(=O)NCCN(Cc1ccc(S(=O)(=O)N2CCOC2=O)cc1)Cc1ccoc1` [CBK024460], for which the viability at 28.5 h, 10 µM is 110%.

Turning to `CC(C)(C)OC(=O)N1CCC(CNS(=O)(=O)c2ccc3c(c2)OCCO3)CC1` [CBK076971], the viability at 28.5 h, 10 µM is 90.6%.

Consider `CC(C)(C)c1ccc(COn2c(=O)c(-c3ccccc3Cl)[n+]([O-])c3ccccc32)cc1` [CBK267494], for which the viability at 28.5 h, 10 µM stood at 101%.

Turning to `Cc1cc(OCC(=O)N2CCN(c3ccccc3F)CC2)no1` [CBK305898], the viability at 28.5 h, 10 µM came to 87.1%.

Take `CC(=O)N1CCCc2cc(C(O)CN3CCN(c4cccc(C)c4)CC3)ccc21` (stereo not drawn) [CBK286457]: the viability at 28.5 h, 10 µM came out at 93.1%.

Take `CCc1nnc(CN2CCCC(c3cc(C(N)=O)[nH]n3)C2)o1` (stereo not drawn) [CBK305213]: the viability at 28.5 h, 10 µM is 74.5%.

Turning to `O=C(CSc1ncnc2c1oc1ccccc12)NCc1ccccc1` [CBK287397], the viability at 28.5 h, 10 µM was 101%.

For the molecule `O=C(Nc1cc(Oc2cccnc2)cc([N+](=O)[O-])c1)c1nn2c(C(F)(F)F)cc(-c3cccs3)nc2c1Br` [CBK262535], the viability at 28.5 h, 10 µM stood at 84.7%.

As to `Cc1ccc(C(=O)N2CN(C(=O)CNC3CC3)CC2(C)C)cc1` [CBK089574C], the viability at 28.5 h, 10 µM was 98.4%.

Consider `O=C(CSc1nnc(-c2cccnc2)n1-c1ccc(Br)cc1)Nc1ccc(F)cc1` [CBK266174], for which the viability at 28.5 h, 10 µM was found to be 111%.

In the case of `CCn1c(C)nnc1SCCNc1cc(C)nc2ccnn12` [CBK306607], the viability at 28.5 h, 10 µM is 99.7%.

Take `O=c1nc(-c2ccco2)oc2ccccc12` [CBK152421]: the viability at 28.5 h, 10 µM was found to be 112%.

Consider `O=C(CC1CCCC1)NCCn1nc(-c2ccco2)ccc1=O` [CBK283864], for which the viability at 28.5 h, 10 µM is 106%.

In the case of `O=C1C(C2CCN(Cc3ccc4ncccc4c3)CC2)CC=CCN1Cc1ccccc1` (stereo not drawn) [CBK286269], the viability at 28.5 h, 10 µM was found to be 108%.

With `COC(=O)Nc1ccc(S(=O)(=O)Oc2ccc(C)cc2-n2nc3ccccc3n2)cc1` [CBK262183], the viability at 28.5 h, 10 µM stood at 89.3%.

In the case of `CCC(SC1=NCCS1)C(=O)Nc1ccc(NC(C)=O)cc1` (stereo not drawn) [CBK266199], the viability at 28.5 h, 10 µM was 97.4%.

As to `O=C1CCC(=O)N1CCOc1nccnc1N1CCN(CC2CCCCC2)CC1` [CBK084306], the viability at 28.5 h, 10 µM came out at 88.9%.

Take `CC1CCN(Cc2ccc(-c3ccc(CC(=O)NCc4ccc(C#N)cc4)cn3)cc2)CC1` [CBK158409]: the viability at 28.5 h, 10 µM was 93.8%.

For `O=C(/C=C/c1ccccc1)NC(NC(=S)Nc1cccc2cccnc12)C(Cl)(Cl)Cl` (stereo not drawn) [CBK261046], the viability at 28.5 h, 10 µM came out at 101%.
